Patent publication US10125119B2, “Series of resveratrol-derivative fluorescently labeled molecules and synthesis method thereof” (Hangzhou Normal University, priority 2017, dated 2018)

- melting point: 165 to 166 °C
Compound: COc1cc(/C=C/c2ccc(Oc3nc(Cl)nc(-n4cc(-c5ccc(C(=C(c6ccccc6)c6ccccc6)c6ccccc6)cc5)nn4)n3)cc2)cc(OC)c1 [Product (I)]
